Data: PMC11050443, “Discovery of Strong 3-Nitro-2-Phenyl-2H-Chromene Analogues as Antitrypanosomal Agents and Inhibitors of Trypanosoma cruzi Glucokinase” (International Journal of Molecular Sciences, 2024)
Where two headings read alike, the source gives them in different places.

Assays:
[1] = molecular target: T1, LmG6PDH (Leuconostoc mesenteroides glucose-6-phosphate dehydrogenase) (Leuconostoc mesenteroides, UniProt P11411); test: Confirmatory assay on the LmG6PDH enzyme-coupled system; type: biochemical; conditions: for LmG6PDH inhibitory effect (in words): 20 µM compound; for inhibition at 20 µM: read-out: LmG6PDH Inh20
T1 construct: purchased Worthington Biochemical Corporation
T1 sequence (P11411 whole entry): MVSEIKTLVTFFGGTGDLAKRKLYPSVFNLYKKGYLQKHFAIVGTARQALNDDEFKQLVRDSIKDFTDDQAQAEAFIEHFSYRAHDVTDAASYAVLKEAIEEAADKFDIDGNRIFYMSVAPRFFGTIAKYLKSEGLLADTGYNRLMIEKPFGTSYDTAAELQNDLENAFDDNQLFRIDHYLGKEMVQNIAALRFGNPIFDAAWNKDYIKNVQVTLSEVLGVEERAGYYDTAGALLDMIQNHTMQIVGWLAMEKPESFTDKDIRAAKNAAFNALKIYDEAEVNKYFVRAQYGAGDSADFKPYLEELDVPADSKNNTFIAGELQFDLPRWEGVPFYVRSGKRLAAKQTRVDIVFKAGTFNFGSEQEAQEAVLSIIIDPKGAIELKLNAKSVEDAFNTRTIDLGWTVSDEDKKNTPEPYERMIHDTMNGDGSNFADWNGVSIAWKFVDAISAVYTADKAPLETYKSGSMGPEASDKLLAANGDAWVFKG
Procedure: Two criteria were examined in order to certify on-target confirmed hits: (a) the assessment of potential inhibition to the LmG6PDH enzyme-coupled system, and (b) the precision of the assay (per inhibitor), performed in quadruplicate (N = 4). Compounds were tested in quadruplicate in a black, round-bottom 96-well microplate in which wells were filled with a buffered solution (50 mM triethanolamine, 150 mM NaCl) amounting to a total volume of 206.5 μL that contained the following reagents at final assay concentrations: LmG6PDH (6.1 μg/mL), NADP^+ (0.54 mM), ATP (0.54 mM), MgCl2 (6.9 mM), DMSO (1.0% by vol.), D-glucose-6-phosphate (0.80 mM), and a 3-nitro-2-phenyl-2H-chromene analogue (20.0 μM). The analogue compounds were pre-incubated with the enzyme system a minimum of 10 min prior to the initiation of the assay. The enzymatic reactions were initiated and terminated similarly as described in the TcGlcK primary screen (vide supra). The production of NADPH was monitored using the VANTAstar-F multi-mode microplate reader set to fluorescent mode, λex = 340 nm and λem = 485 nm, over a 120-s timeframe.

[2] = molecular target: T2, TcGlcK (Trypanosoma cruzi glucokinase) (Trypanosoma cruzi, UniProt Q4E4E1); test: TcGlcK primary screening assay (LmG6PDH-coupled, Dixon plots); type: biochemical; conditions: for Mode of TcGlcK inhibition: Cornish-Bowden method, Dixon plots of [D-Glc]/V versus inhibitor concentration; for Ki: Dixon plots, 0.4, 0.6, 0.8 mM D-glucose, N = 1 unless marked, N = 3 for compounds 1, 4, 9, 11
T2 construct: made in house; host or cells: Escherichia coli BL21(DE3)
T2 sequence (Q4E4E1 1-376): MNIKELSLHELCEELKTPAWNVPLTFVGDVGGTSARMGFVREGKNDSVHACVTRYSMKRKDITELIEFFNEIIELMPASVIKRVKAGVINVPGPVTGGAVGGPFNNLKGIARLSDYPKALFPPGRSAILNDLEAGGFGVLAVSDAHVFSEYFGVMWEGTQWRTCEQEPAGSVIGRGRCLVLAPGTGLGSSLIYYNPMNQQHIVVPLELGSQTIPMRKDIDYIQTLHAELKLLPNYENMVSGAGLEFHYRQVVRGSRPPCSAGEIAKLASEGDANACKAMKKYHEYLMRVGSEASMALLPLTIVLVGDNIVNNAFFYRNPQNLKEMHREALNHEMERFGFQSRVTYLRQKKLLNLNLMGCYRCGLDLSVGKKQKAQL
Procedure: A primary screening assay was carried out for TcGlcK with the 3-nitro-2-phenyl-2H-chromene analogues. The data was subsequently processed for respective Ki values in order to assess enzyme inhibition. […] The primary screening assay was performed with the substrate D-glucose in various concentrations of 0.4 mM, 0.6 mM, and 0.8 mM to produce Dixon plots with different slopes. Each of the 3-nitro-2-phenyl-2H-chromene analogues were originally prepared at a working concentration of 1.0 mM and were dissolved in 100% DMSO. The final assay concentrations of the analogue compounds (inhibitors) ranged from 0.0–10.0 μM. The analogue compounds were pre-incubated with the enzyme system a minimum of 10 min prior to the initiation of the assay. The enzymatic reaction was carried out at room temperature (22 °C; temperature optimum) using ATP to initiate the reaction, and termination was performed after 120 s (time optimum) by stopping the reaction with the addition of an EDTA (pH 8.0) solution, to a final concentration of 100 mM. TcGlcK enzyme activity was analyzed for the production of NADPH. Each completed reaction mixture was added into a black, round-bottom microplate and scanned by a VANTAstar-F multi-mode microplate reader (BMG LABTECH, Inc.; Cary, NC, USA). The instrument was set to fluorescence mode and the wavelengths (λex = 340 nm; λem = 485 nm) were set to observe the relative fluorescence units of NADPH [40]. The enzyme-inhibition kinetics Ki value determination and the mode of inhibition was determined using the Cornish–Bowden Dixon Plot analysis method.

[3] = test system: T. brucei brucei (427 strain) bloodstream form; test: In vitro T. brucei biological assay (Alamar blue); type: cell-based, Trypanosoma brucei brucei; conditions: for anti-T. brucei activity (in words): T. brucei brucei 427 strain bloodstream form
Procedure: The in vitro cell culture preparation of T. brucei brucei (427 strain) trypomastigote bloodstream form followed by treatment with inhibitors has recently been described by Ajayi and colleagues. The 3-nitro-2-phenyl-2H-chromene compounds (inhibitors) that were prepared as 10.0 mM stock solutions in 100% DMSO were thawed from −80 °C to room temperature. HMI-9 medium [Iscove’s modification of DMEM supplemented with 10% FBS, 10% serum plus (SAFC), 0.05 mM bathocuproinesulfonate, 1.5 mM L-cysteine, 1.0 mM hypoxanthine, 0.2 mM β-mercaptoethanol, 0.16 mM thymidine, and 1.0 mM pyruvate] was prepared. In a sterile, round-bottom, 96-well microplate, 100 μL of HMI-9 medium was added to each well. A volume of 2.0 μL of a given compound plus a volume of 98.0 μL of fresh media were both added to a well in the first row of the 96-well microplate; this was performed for each compound to be tested. Solutions were mixed with a micropipette followed by transfer of 100 μL to the next row and repeated. The compound solutions ranged from 0.0781–10.0 μM and this was accomplished by serial dilution using a 2-fold dilution. T. brucei parasites were centrifuged for 10 min at 900× g (without centrifuge breaks). The media was carefully discarded by aspiration and the parasites were resuspended in warm media. Parasites were counted in a Newbauer chamber. Afterwards, the parasites were diluted to 50,000 cells/mL (5000 cells/well) and 100 μL was added to each well of the 96-well microplate using a multichannel pipette. After 48 h, 20.0 μL of Alamar blue was added to each well and the plate was placed into an incubator for 4 h at 37 °C. Fluorescence readings were measured using a Victor Nivo multimode microplate reader (PerkinElmer, Inc.; Shelton, CT, USA) at λex = 530 nm and λem = 590 nm. All measurements were performed in triplicate and IC50 determinations for percent growth inhibition were carried out using GraphPad Prism 10.0. The detergent SDS was used as a positive control and its final solution concentration was 0.5%. Three control experiments were performed, as follows: (a) parasites alone, (b) parasites and 0.5% SDS, and (c) the medium alone.

[4] = percentage of inhibition at 20 µM compound in comparison to controls, N = 4
[5] = Trypanosoma brucei, 48 h, T. brucei brucei 427 strain bloodstream form growth inhibition, N = 3
[6] = Trypanosoma brucei, bound stated in the text for the top seven anti-T. brucei compounds
[7] = T. brucei brucei 427 strain bloodstream form growth inhibition, 48 h, N = 3

| Compound | LmG6PDH inhibitory effect (in words) ([1]; N = 4) | inhibition at 20 µM [1, 4] | Mode of TcGlcK inhibition [2] | Ki [2] | anti-T. brucei activity (in words) [3] | IC50 [3, 5] | IC50 [3, 6] | IC50 [3, 7] | inhibition at 20 µM [1] |
| --- | --- | --- | --- | --- | --- | --- | --- | --- | --- |
| CCOc1ccc(C2Oc3ccc(Br)cc3C=C2[N+](=O)[O-])cc1OC (centres unmarked) [Compound 1, 6-Bromo-2-(4-ethoxy-3-methoxyphenyl)-3-nitro-2H -chromene] | did not observe any significant LmG6PDH inhibitory effects | 15.4 ± 0.1% | uncompetitive inhibition | 6200 ± 1200 nM | nanomolar potency | 610 ± 30 nM | < 750 nM | – | – |
| CCOc1ccc(C2Oc3ccc(Br)cc3C=C2[N+](=O)[O-])cc1OCC (centres unmarked) [Compound 2, 6-Bromo-2-(3,4-diethoxyphenyl)-3-nitro-2H -chromene] | – | 0% | – | 46000 nM | – | 1190 ± 40 nM | – | – | – |
| COc1ccc(C2Oc3c(cc(Br)cc3OC)C=C2[N+](=O)[O-])cc1OC (centres unmarked) [Compound 3, 6-Bromo-2-(3,4-dimethoxyphenyl)-8-methoxy-3-nitro-2H -chromene] | – | 0% | – | 24000 nM | nanomolar potency | < 550 nM | < 750 nM | 520 ± 50 nM | – |
| COc1ccc(C2Oc3ccc(Br)cc3C=C2[N+](=O)[O-])cc1OC (centres unmarked) [Compound 4, 6-Bromo-2-(3,4-dimethoxyphenyl)-3-nitro-2H -chromene] | did not observe any significant LmG6PDH inhibitory effects | 12.1% | mixed-mode inhibition | 5500 ± 1800 nM | nanomolar potency | < 550 nM | < 750 nM | 440 ± 30 nM | – |
| COc1ccc(C2Oc3c(Br)cc(Br)cc3C=C2[N+](=O)[O-])cc1OC (centres unmarked) [Compound 5, 6,8-Dibromo-2-(3,4-dimethoxyphenyl)-3-nitro-2H -chromene] | – | 0% | – | 35000 nM | nanomolar potency | < 550 nM | < 750 nM | 420 ± 40 nM | – |
| CCOc1ccc(C2Oc3c(Br)cc(Br)cc3C=C2[N+](=O)[O-])cc1OC (centres unmarked) [Compound 6, 6,8-Dibromo-2-(4-ethoxy-3-methoxyphenyl)-3-nitro-2H -chromene] | did not observe any significant LmG6PDH inhibitory effects | 16.1% | – | 6100 nM | nanomolar potency | < 550 nM | < 750 nM | 360 ± 60 nM | – |
| O=[N+]([O-])C1=Cc2cc(Br)cc(Br)c2OC1c1c(Cl)cccc1Cl (centres unmarked) [Compound 7, 2-(2,6-Dichlorophenyl)-6,8-dibromo-3-nitro-2H -chromene] | – | 0% | – | 50000 nM | nanomolar potency | 900 ± 330 nM | – | – | – |
| CCOc1ccc(C2Oc3c(cc(Br)cc3OC)C=C2[N+](=O)[O-])cc1OC (centres unmarked) [Compound 8, 6-Bromo-2-(4-ethoxy-3-methoxyphenyl)-8-methoxy-3-nitro-2H -chromene] | – | 0% | – | 30000 nM | nanomolar potency | 740 ± 140 nM | < 750 nM | – | – |
| CCOc1ccc(C2Oc3c(Cl)cc(Cl)cc3C=C2[N+](=O)[O-])cc1OCC (centres unmarked) [Compound 9, 6,8-Dichloro-2-(3,4-diethoxyphenyl)-3-nitro-2H -chromene] | did not observe any significant LmG6PDH inhibitory effects | 10.1 ± 0.1% | mixed-mode inhibition | 12300 ± 5500 nM | nanomolar potency | 660 ± 50 nM | < 750 nM | – | – |
| CCOc1ccc(C2Oc3ccccc3C=C2[N+](=O)[O-])cc1OCC (centres unmarked) [Compound 10, 2-(3,4-Diethoxyphenyl)-3-nitro-2H -chromene] | – | – | – | 23000 nM | – | 1120 ± 300 nM | – | – | 0% |
| O=[N+]([O-])C1=Cc2cc(Br)ccc2OC1c1ccccc1Cl (centres unmarked) [Compound 11, 6-Bromo-2-(2-chlorophenyl)-3-nitro-2H -chromene] | did not observe any significant LmG6PDH inhibitory effects | 15 ± 0.1% | noncompetitive inhibition | 20000 ± 4300 nM | nanomolar potency | 860 ± 200 nM | – | – | – |
| O=[N+]([O-])C1=Cc2ccccc2OC1c1c(Cl)cccc1Cl (centres unmarked) [Compound 13, 2-(2,6-Dichlorophenyl)-3-nitro-2H -chromene] | – | 0% | – | 25000 nM | – | 1280 ± 100 nM | – | – | – |
